Read-outs that look alike come from different tables or passages of the source.
Target: T1, Human Factor D (Homo sapiens, UniProt P00746)
T1 construct: purified from human serum; purchased Complement Technology, Inc; host or cells: human serum (natural protein, not recombinant)
Assay: Human Factor D Assay
Type: biochemical
Procedure, shortened: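 Serum-purified human factor D (80 nM final) was preincubated with compound for 5 min at room temperature in 50 mM Tris, 1 M NaCl, pH 7.5. Z-L-Lys-SBzl and DTNB were added at 100 μM each, and A405 was read every 30 s for 30 min. IC50 came from nonlinear regression of reaction rates versus compound concentration.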

[1] = Table 2, Factor D 80 nM, substrate Z-L-Lys-SBzl, read-out: IC50
[2] = Table 3, factor D inhibition assay, read-out: IC50 (Stars)

T1 sequence (P00746 26-253): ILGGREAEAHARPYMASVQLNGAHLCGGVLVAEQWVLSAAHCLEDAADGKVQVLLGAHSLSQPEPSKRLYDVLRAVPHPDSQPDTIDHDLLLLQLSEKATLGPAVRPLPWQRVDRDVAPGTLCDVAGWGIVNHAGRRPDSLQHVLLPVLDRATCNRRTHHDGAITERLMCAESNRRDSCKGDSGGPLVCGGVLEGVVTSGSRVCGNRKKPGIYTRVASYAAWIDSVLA

SMILES | IC50 [1] | IC50 [2]
NC(=O)c1nn(CC(=O)N2C[C@H](F)C[C@H]2C(=O)Nc2cccc(-c3ccccc3Cl)c2F)c2cc(C(=O)NC3CCCC3)sc12 [Compound 61, 1-(2-((2S,4R)-2-(2′-chloro-2-fluorobiphenyl-3-ylcarbamoyl)-4-fluoropyrrolidin-1-yl)-2-oxoethyl)-N5-cyclopentyl-1H-thieno[3,2-c]pyrazole-3,5-dicarboxamide] | < 1000 nM | –
CN(C)C(=O)c1cc2c(s1)c(C(N)=O)nn2CC(=O)N1C[C@H](F)C[C@H]1C(=O)Nc1cccc(-c2ccccc2Cl)c1F [Compound 62, 1-(2-((2S,4R)-2-(2′-chloro-2-fluorobiphenyl-3-ylcarbamoyl)-4-fluoropyrrolidin-1-yl)-2-oxoethyl)-N5,N5-dimethyl-1H-thieno[3,2-c]pyrazole-3,5-dicarboxamide] | < 1000 nM | –
CC(=O)c1cn(CC(=O)N2C[C@H](F)C[C@H]2C(=O)NCCc2ccccc2)c2ccc(NC(=O)N3CCCC(F)(F)C3)cc12 [Compound 197, N-(3-acetyl-1-(2-((2S,4R)-4-fluoro-2-(phenethylcarbamoyl)pyrrolidin-1-yl)-2-oxoethyl)-1H-indol-5-yl)-3,3-difluoropiperidine-1-carboxamide] | – | < 1000 nM
CC(=O)c1cn(CC(=O)N2C[C@H](F)C[C@H]2C(=O)NCCCc2ccccc2)c2ccc(NC(=O)N3CCCC(F)(F)C3)cc12 [Compound 198, N-(3-acetyl-1-(2-((2S,4R)-4-fluoro-2-((3-phenylpropyl)carbamoyl)pyrrolidin-1-yl)-2-oxoethyl)-1H-indol-5-yl)-3,3-difluoropiperidine-1-carboxamide] | – | < 1000 nM
CC(=O)c1cn(CC(=O)N2C[C@H](F)C[C@H]2C(=O)NCCCCc2ccccc2)c2ccc(NC(=O)N3CCCC(F)(F)C3)cc12 [Compound 199, N-(3-acetyl-1-(2-((2S,4R)-4-fluoro-2-((4-phenylbutyl)carbamoyl)pyrrolidin-1-yl)-2-oxoethyl)-1H-indol-5-yl)-3,3-difluoropiperidine-1-carboxamide] | – | < 1000 nM
CC(=O)c1cn(CC(=O)N2C[C@H](F)C[C@H]2CCNS(=O)(=O)c2ccccc2)c2ccc(NC(=O)N3CCCC(F)(F)C3)cc12 [Compound 201, N-(3-acetyl-1-(2-((2R,4R)-4-fluoro-2-(2-(phenylsulfonamido)ethyl)pyrrolidin-1-yl)-2-oxoethyl)-1H-indol-5-yl)-3,3-difluoro-piperidine-1-carboxamide] | – | 1000 to 10000 nM
CC(=O)c1cn(CC(=O)N2CC[C@H]2C(=O)Nc2cccc(C)n2)c2ccc(NC(=O)N3CCCC(F)(F)C3)cc12 [Compound 205, (S)-N-(3-acetyl-1-(2-(2-((6-methylpyridin-2-yl)-carbamoyl)-azetidin-1-yl)-2-oxoethyl)-1H-indol-5-yl)-3,3-difluoropiperidine-1-carboxamide] | – | > 10000 nM
Cc1cccc(NC(=O)[C@@H]2[C@H]3CC[C@H](C3)N2C(=O)Cn2cc(C(N)=O)c3cc(C(=O)N4CCCC(F)(F)C4)ccc32)n1 [Compound 206, 5-(3,3-difluoropiperidine-1-carbonyl)-1-(2-((1R,3S,4S)-3-((6-methyl-pyridin-2-yl)-carbamoyl)-2-aza-bicyclo[2.2.1]heptan-2-yl)-2-oxoethyl)-1H-indole-3-carboxamide] | – | 1000 to 10000 nM
CC(=O)c1nn(CC(=O)N2C[C@H](F)C[C@H]2C(=O)Nc2cccc(Br)n2)c2ccc(NC(=O)N3CCC(F)(F)C3)cc12 [Compound 207, N-(3-acetyl-1-(2-((2S,4R)-2-((6-bromo-pyridin-2-yl)carbamoyl)-4-fluoro-pyrrolidin-1-yl)-2-oxoethyl)-1H-indazol-5-yl)-3,3-difluoro-pyrrolidine-1-carboxamide] | – | < 1000 nM
CC(=O)c1nn(CC(=O)N2C[C@H](F)C[C@H]2C(=O)Nc2cccc(Br)n2)c2ccc(NC(=O)C3CCCC3(F)F)cc12 (some centres unmarked) [Compound 230] | – | < 1000 nM
CC(=O)c1nn(CC(=O)N2[C@H](C(=O)Nc3cccc(Br)n3)C[C@@]3(C)C[C@@H]23)c2cc(C(=O)NS(=O)(=O)C3CC3)ccc12 [Compound 234, 3-acetyl-1-(2-((1R,3S,5R)-3-((6-bromopyridin-2-yl)carbamoyl)-5-methyl-2-azabicyclo [3.1.0]hexan-2-yl)-2-oxoethyl)-N-(cyclopropylsulfonyl)-1H-indazole-6-carboxamide] | – | 1000 to 10000 nM

Now from value to compound:

IC50 [1] | IC50 [2] | SMILES
– | > 10000 nM | CC(=O)c1cn(CC(=O)N2C[C@H](F)C[C@H]2CCNS(=O)(=O)c2ccccc2)c2ccc(C(=O)NS(=O)(=O)C3CC3)cc12 [Compound 174, 3-acetyl-N-(cyclopropylsulfonyl)-1-(2-((2R,4R)-4-fluoro-2-(2-(phenylsulfonylamido)ethyl)pyrrolidin-1-yl)-2-oxoethyl)-1H-indole-5-carboxamide]
– | 1000 to 10000 nM | CC(=O)c1cn(CC(=O)N2C[C@H](F)C[C@H]2C(=O)NCc2ccccc2)c2ccc(C(=O)NS(=O)(=O)C3CC3)cc12 [Compound 180, 3-acetyl-1-(2-((2S,4R)-2-(benzylcarbamoyl)-4-fluoropyrrolidin-1-yl)-2-oxoethyl)-N-(cyclopropylsulfonyl)-1H-indole-5-carboxamide]
– | > 10000 nM | CC(=O)c1cn(CC(=O)N2C[C@H](F)C[C@H]2C(=O)NCCc2ccccc2)c2ccc(C(=O)NS(=O)(=O)C3CC3)cc12 [Compound 185, 3-acetyl-N-(cyclopropylsulfonyl)-1-(2-((2S,4R)-4-fluoro-2-(phenethylcarbamoyl)pyrrolidin-1-yl)-2-oxoethyl)-1H-indole-5-carboxamide]
– | 1000 to 10000 nM | CC(=O)c1cn(CC(=O)N2C[C@H](F)C[C@H]2C(=O)NCCCc2ccccc2)c2ccc(C(=O)NS(=O)(=O)C3CC3)cc12 [Compound 190, 3-acetyl-N-(cyclopropylsulfonyl)-1-(2-((2S,4R)-4-fluoro-2-((3-phenylpropyl)carbamoyl)pyrrolidin-1-yl)-2-oxoethyl)-1H-indole-5-carboxamide]
– | > 10000 nM | CC(=O)c1cn(CC(=O)N2C[C@H](F)C[C@H]2C(=O)NCCCCc2ccccc2)c2ccc(C(=O)NS(=O)(=O)C3CC3)cc12 [Compound 195, 3-acetyl-N-(cyclopropylsulfonyl)-1-(2-((2S,4R)-4-fluoro-2-((4-phenylbutyl)carbamoyl)pyrrolidin-1-yl)-2-oxoethyl)-1H-indole-5-carboxamide]
– | < 1000 nM | CC(=O)c1cn(CC(=O)N2C[C@H](F)C[C@H]2C(=O)NCc2ccccc2)c2ccc(NC(=O)N3CCCC(F)(F)C3)cc12 [Compound 196, N-(3-acetyl-1-(2-((2S,4R)-2-(benzocarbamoyl)-4-fluoropyrrolidin-1-yl)-2-oxoethyl)-1H-indol-5-yl)-3,3-difluoropiperidine-1-carboxamide]
– | < 1000 nM | CC(=O)c1cn(CC(=O)N2C[C@H](F)C[C@H]2C(=O)NCc2cccc(Cl)c2F)c2ccc(C(=O)NS(=O)(=O)C3CC3)cc12 [Compound 208, 3-acetyl-1-(2-((2S,4R)-2-((3-chloro-2-fluorobenzyl)carbamoyl)-4-fluoropyrrolidin-1-yl)-2-oxoethyl)-N-(cyclopropylsulfonyl)-1H-indole-5-carboxamide]
– | > 10000 nM | Cc1cccc(NC(=O)[C@@H]2[C@H]3CC[C@H](C3)N2C(=O)Cn2cc(C(N)=O)c3cc(C(=O)NS(=O)(=O)C4CC4)ccc32)n1 [Compound 209, N5-(cyclopropylsulfonyl)-1-(2-((1R,4S)-3-((6-methyl-pyridin-2-yl)carbamoyl)-2-aza-bicyclo[2.2.1]heptan-2-yl)-2-oxoethyl)-1H-indole-3,5-dicarboxamide]
– | < 1000 nM | CC(=O)c1nn(CC(=O)N2C[C@H](F)C[C@H]2C(=O)Nc2cccc(Br)n2)c2cc(C(=O)NS(=O)(=O)C3CC3)ccc12 [Compound 233, 3-acetyl-1-(2-((2S,4R)-2-((6-bromopyridin-2-yl)-carbamoyl)-4-fluoro-pyrrolidin-1-yl)-2-oxoethyl)-N-(cyclopropylsulfonyl)-1H-indazole-6-carboxamide]
